According to ChEMBL document CHEMBL3885881, “DrugMatrix”:

Species on record: Rattus norvegicus
Assay: DrugMatrix - Regimen: Daily Repeat
Format: toxicity, organism-based, Sprague-Dawley
Parameters: regimen Daily Repeat, gender Male, age 6-8 weeks
Conditions: in vivo, po, route oral GAVAGE, vehicle .5 % CMC; for ABSOLUTE BASOPHIL / ABSOLUTE EOSINOPHIL / ABSOLUTE LYMPHOCYTE / ABSOLUTE MONOCYTE / ABSOLUTE SEGMENTED NEUTROPHIL / BASOPHIL / EOSINOPHIL / ERYTHROCYTE COUNT / HEMATOCRIT / HEMOGLOBIN / LEUKOCYTE COUNT / LYMPHOCYTE / MEAN CORPUSCULAR HEMOGLOBIN / MEAN CORPUSCULAR HEMOGLOBIN CONCENTRATION / MEAN CORPUSCULAR VOLUME / MONOCYTE / NEUTROPHIL / NUCLEATED RED BLOOD CELLS / PLATELET COUNT: tissue Blood; for ALANINE AMINOTRANSFERASE / ALBUMIN / ALKALINE PHOSPHATASE / ASPARTATE AMINOTRANSFERASE / BLOOD UREA NITROGEN / CARBON DIOXIDE / CHLORIDE / CHOLESTEROL / CREATINE PHOSPHOKINASE / CREATININE / GLUCOSE / LACTATE DEHYDROGENASE / LIPASE / PHOSPHORUS / POTASSIUM / SODIUM / TOTAL BILIRUBIN / TOTAL PROTEIN / URIC ACID: tissue Plasma
[1] = 0 mg/kg, 72 h, dose level Control, time 3 day
[2] = 0 mg/kg, 120 h, dose level Control, time 5 day
[3] = 385.5 mg/kg, 72 h, dose level Low, time 3 day

## Cn1c(=O)c2c(ncn2CC(O)CO)n(C)c1=O (centres undefined) [DYPHYLLINE]
[1]
  ABSOLUTE BASOPHIL: 0 CELLS/uL
  ABSOLUTE EOSINOPHIL: 32.5 CELLS/uL
  ABSOLUTE LYMPHOCYTE: 13494.17 CELLS/uL
  ABSOLUTE MONOCYTE: 474 CELLS/uL
  ABSOLUTE SEGMENTED NEUTROPHIL: 1932.67 CELLS/uL
  BASOPHIL: 0%
  EOSINOPHIL: 0.17%
  ERYTHROCYTE COUNT: 5.45 x10E6/uL
  HEMATOCRIT: 34.32%
  HEMOGLOBIN: 13.82 G/DL
  LEUKOCYTE COUNT: 15.93 x10E3/uL
  LYMPHOCYTE: 84.83%
  MEAN CORPUSCULAR HEMOGLOBIN: 25.38 pg
  MEAN CORPUSCULAR HEMOGLOBIN CONCENTRATION: 40.27 G/DL
  MEAN CORPUSCULAR VOLUME: 63.05 fL
  MONOCYTE: 3%
  NEUTROPHIL: 12%
  NUCLEATED RED BLOOD CELLS: 0.67 /100WBC
  PLATELET COUNT: 1188.5 x10E3/uL
  ALANINE AMINOTRANSFERASE: 54.83 u/L
  ALBUMIN: 4.22 G/DL
  ALKALINE PHOSPHATASE: 427.67 u/L
  ASPARTATE AMINOTRANSFERASE: 86.5 u/L
  BLOOD UREA NITROGEN: 15.33 mg/dL
  CARBON DIOXIDE: 24.83 mmol/L
  CHLORIDE: 102.33 MEQ/L
  CHOLESTEROL: 71.67 mg/dL
  CREATINE PHOSPHOKINASE: 442.5 u/L
  CREATININE: 0.19 mg/dL
  GLUCOSE: 160.67 mg/dL
  LACTATE DEHYDROGENASE: 236.5 u/L
  LIPASE: 9 u/L
  PHOSPHORUS: 11.97 mg/dL
  POTASSIUM: 6.2 MEQ/L
  SODIUM: 142.85 MEQ/L
  TOTAL BILIRUBIN: 0.2 mg/dL
  TOTAL PROTEIN: 5.8 G/DL
  URIC ACID: 1.3 mg/dL
[2]
  ABSOLUTE BASOPHIL: 0 CELLS/uL
  ABSOLUTE EOSINOPHIL: 114.5 CELLS/uL
  ABSOLUTE LYMPHOCYTE: 14614 CELLS/uL
  ABSOLUTE MONOCYTE: 173 CELLS/uL
  ABSOLUTE SEGMENTED NEUTROPHIL: 1048.5 CELLS/uL
  BASOPHIL: 0%
  EOSINOPHIL: 0.67%
  ERYTHROCYTE COUNT: 5.66 x10E6/uL
  HEMATOCRIT: 35.52%
  HEMOGLOBIN: 14.27 G/DL
  LEUKOCYTE COUNT: 15.95 x10E3/uL
  LYMPHOCYTE: 91.33%
  MEAN CORPUSCULAR HEMOGLOBIN: 25.23 pg
  MEAN CORPUSCULAR HEMOGLOBIN CONCENTRATION: 40.2 G/DL
  MEAN CORPUSCULAR VOLUME: 62.7 fL
  MONOCYTE: 1.17%
  NEUTROPHIL: 6.83%
  NUCLEATED RED BLOOD CELLS: 0.33 /100WBC
  PLATELET COUNT: 1229 x10E3/uL
  ALANINE AMINOTRANSFERASE: 58.67 u/L
  ALBUMIN: 4.32 G/DL
  ALKALINE PHOSPHATASE: 382.5 u/L
  ASPARTATE AMINOTRANSFERASE: 81.67 u/L
  BLOOD UREA NITROGEN: 17.67 mg/dL
  CARBON DIOXIDE: 27.17 mmol/L
  CHLORIDE: 102.33 MEQ/L
  CHOLESTEROL: 63.67 mg/dL
  CREATINE PHOSPHOKINASE: 227.67 u/L
  CREATININE: 0.23 mg/dL
  GLUCOSE: 155.33 mg/dL
  LACTATE DEHYDROGENASE: 146.5 u/L
  LIPASE: 10.67 u/L
  PHOSPHORUS: 11.93 mg/dL
  POTASSIUM: 6.85 MEQ/L
  SODIUM: 143.95 MEQ/L
  TOTAL BILIRUBIN: 0.18 mg/dL
  TOTAL PROTEIN: 6.02 G/DL
  URIC ACID: 1.63 mg/dL
[3]
  ABSOLUTE BASOPHIL: 0 CELLS/uL
  ABSOLUTE EOSINOPHIL: 40.67 CELLS/uL
  ABSOLUTE LYMPHOCYTE: 10748 CELLS/uL
  ABSOLUTE MONOCYTE: 461.33 CELLS/uL
  ABSOLUTE SEGMENTED NEUTROPHIL: 1483.33 CELLS/uL
  BASOPHIL: 0%
  EOSINOPHIL: 0.33%
  ERYTHROCYTE COUNT: 5.3 x10E6/uL
  HEMATOCRIT: 33.37%
  HEMOGLOBIN: 13.27 G/DL
  LEUKOCYTE COUNT: 12.73 x10E3/uL
  LYMPHOCYTE: 86%
  MEAN CORPUSCULAR HEMOGLOBIN: 25.13 pg
  MEAN CORPUSCULAR HEMOGLOBIN CONCENTRATION: 39.8 G/DL
  MEAN CORPUSCULAR VOLUME: 63.07 fL
  MONOCYTE: 3%
  NEUTROPHIL: 10.67%
  NUCLEATED RED BLOOD CELLS: 0.33 /100WBC
  PLATELET COUNT: 1358 x10E3/uL
  ALANINE AMINOTRANSFERASE: 42.67 u/L
  ALBUMIN: 4.03 G/DL
  ALKALINE PHOSPHATASE: 400.67 u/L
  ASPARTATE AMINOTRANSFERASE: 72 u/L
  BLOOD UREA NITROGEN: 15.67 mg/dL
  CARBON DIOXIDE: 25.33 mmol/L
  CHLORIDE: 103 MEQ/L
  CHOLESTEROL: 72.33 mg/dL
  CREATINE PHOSPHOKINASE: 199.67 u/L
  CREATININE: 0.14 mg/dL
  GLUCOSE: 152 mg/dL
  LACTATE DEHYDROGENASE: 149.67 u/L
  LIPASE: 9.33 u/L
  PHOSPHORUS: 13 mg/dL
  POTASSIUM: 7.04 MEQ/L
  SODIUM: 144.5 MEQ/L
  TOTAL BILIRUBIN: 0.17 mg/dL
  TOTAL PROTEIN: 5.57 G/DL
  URIC ACID: 1.53 mg/dL
